Reference: ChEMBL document CHEMBL1129654, “2-Carbomethoxy-3-(diarylmethoxy)-1 alpha H, 5 alpha H-tropane analogs: synthesis and inhibition of binding at the dopamine transporter and comparison with piperazines of the GBR series” (J Med Chem, 1996)

Assays:
[1] = target: Sodium-dependent serotonin transporter; assay: Inhibition of [3H]citalopram binding to the serotonin transporter in the cynomolgus (macaca fascicularis) monkey caudate-putamen.; type: tissue-based, Cercopithecidae
[2] = Inhibition of [3H]WIN-35428 binding to the dopamine transporter in the cynomolgus (macaca fascicularis) monkey caudate-putamen.

## COC(=O)C1C2CCC(C[C@@H]1OC(c1ccccc1)c1ccc(I)cc1)N2C (stereo partly drawn)
[1]
  IC50: 9.28 µM

## COC(=O)C1C2CCC(C[C@@H]1OC(c1ccc(Br)cc1)c1ccc(Br)cc1)N2C (stereo partly drawn)
[1]
  IC50: 2.43 µM

## COC(=O)C1C2CCC(C[C@@H]1OC(c1ccc(F)cc1)c1ccc(F)cc1)N2CCCc1ccc(Br)cc1 (stereo partly drawn)
[1]
  IC50: 0.234 µM

## COC(=O)C1C2CCC(C[C@@H]1OC(c1ccc(F)cc1)c1ccc(F)cc1)N2Cc1ccccc1 (stereo partly drawn)
[1]
  IC50: 4.97 µM

## COC(=O)C1C2CCC(C[C@@H]1OC(c1ccccc1)c1ccccc1)N2C (stereo partly drawn)
[1]
  IC50: 10.1 µM

## COC(=O)C1C2CCC(C[C@@H]1OC(c1ccccc1)c1ccc(C)cc1)N2C (stereo partly drawn)
[1]
  IC50: 13.2 µM

## COC(=O)C1C2CCC(C[C@@H]1OC(c1ccc(F)cc1)c1ccc(F)cc1)N2CCCc1ccc(I)cc1 (stereo partly drawn)
[2]
  IC50: 0.119 µM
[1]
  IC50: 2.2 µM

## COC(=O)C1C2CCC(C[C@@H]1OC(c1ccc(F)cc1)c1ccc(F)cc1)N2CCCc1ccccc1 (stereo partly drawn)
[1]
  IC50: 0.0197 µM

## COC(=O)C1C2CC[C@@H](C[C@@H]1OC(c1ccc(F)cc1)c1ccc(F)cc1)N2C (stereo partly drawn)
[1]
  IC50: 3.53 µM

## COC(=O)C1C2CCC(C[C@@H]1OC1c3ccccc3-c3ccccc31)N2C (stereo partly drawn)
[2]
  IC50: 6.03 µM
[1]
  IC50: 3.44 µM

## COC(=O)C1C2CCC(C[C@@H]1OC(c1ccc(Cl)cc1)c1ccc(Cl)cc1)N2C (stereo partly drawn)
[2]
  IC50: 0.0914 µM
[1]
  IC50: 3.36 µM

## COC(=O)C1C2CCC(C[C@@H]1OC(c1ccccc1)c1ccc(Cl)cc1)N2C (stereo partly drawn)
[1]
  IC50: 5.96 µM

## COC(=O)C1C2CCC(C[C@@H]1OC(c1ccccc1)c1ccc(F)cc1)N2C (stereo partly drawn)
[2]
  IC50: 0.0132 µM
[1]
  IC50: 4.93 µM

## COC(=O)C1C2CCC(C[C@@H]1OC(c1ccc(F)cc1)c1ccc(F)cc1)N2CCCCCc1ccccc1 (stereo partly drawn)
[2]
  IC50: 0.099 µM
[1]
  IC50: 0.55 µM

## COC(=O)C1C2CCC(C[C@@H]1OC(c1ccc(Br)cc1)c1ccc(I)cc1)N2C (stereo partly drawn)
[2]
  IC50: 0.389 µM
[1]
  IC50: 4.39 µM

## CCC(O[C@H]1CC2CCC(C1C(=O)OC)N2C)c1ccccc1 (stereo partly drawn)
[1]
  IC50: 21 µM

## COC(=O)C1C2CCC(C[C@@H]1OC(c1ccccc1)c1ccc(Br)cc1)N2C (stereo partly drawn)
[2]
  IC50: 0.024 µM
[1]
  IC50: 5.77 µM

## COC(=O)C1C2CCC(C[C@@H]1OC(c1ccc(I)cc1)c1ccc(I)cc1)N2C (stereo partly drawn)
[1]
  IC50: 8.55 µM

## COC(=O)C1C2CCC(C[C@@H]1OC(c1ccc(C)cc1)c1ccc(C)cc1)N2C (stereo partly drawn)
[2]
  IC50: 0.24 µM
[1]
  IC50: 9.8 µM

## CN1C2CCC1CC(OC(c1ccc(F)cc1)c1ccc(F)cc1)C2 (stereo not drawn) [DIFLUOROBENZTROPINE]
[1]
  IC50: 5.34 µM
